How the values were obtained:
HaCaT cells = tested on: HaCaT cells; set-up: method as in PMID 25431849, PMID 34418602; settings: cited from earlier work
[1] = target: T1, aryl hydrocarbon receptor (AhR) (Homo sapiens, UniProt P35869); assay: AhR/XRE-dependent luciferase reporter gene assay in XRE-HepG2 cells; assay type: cell-based; settings: XRE-HepG2 cells, 8 h; unit as in the supplements; read-out: AhR/XRE-dependent luciferase activity EC50
T1 construct: AhR-dependent reporter gene activity was determined in human HepG2 cells stably transfected with an XRE; endogenous in cells; host or cells: XRE-HepG2 (human HepG2 hepatoma cells stably carrying an XRE-luciferase plasmid)
T1 sequence (P35869 11-848): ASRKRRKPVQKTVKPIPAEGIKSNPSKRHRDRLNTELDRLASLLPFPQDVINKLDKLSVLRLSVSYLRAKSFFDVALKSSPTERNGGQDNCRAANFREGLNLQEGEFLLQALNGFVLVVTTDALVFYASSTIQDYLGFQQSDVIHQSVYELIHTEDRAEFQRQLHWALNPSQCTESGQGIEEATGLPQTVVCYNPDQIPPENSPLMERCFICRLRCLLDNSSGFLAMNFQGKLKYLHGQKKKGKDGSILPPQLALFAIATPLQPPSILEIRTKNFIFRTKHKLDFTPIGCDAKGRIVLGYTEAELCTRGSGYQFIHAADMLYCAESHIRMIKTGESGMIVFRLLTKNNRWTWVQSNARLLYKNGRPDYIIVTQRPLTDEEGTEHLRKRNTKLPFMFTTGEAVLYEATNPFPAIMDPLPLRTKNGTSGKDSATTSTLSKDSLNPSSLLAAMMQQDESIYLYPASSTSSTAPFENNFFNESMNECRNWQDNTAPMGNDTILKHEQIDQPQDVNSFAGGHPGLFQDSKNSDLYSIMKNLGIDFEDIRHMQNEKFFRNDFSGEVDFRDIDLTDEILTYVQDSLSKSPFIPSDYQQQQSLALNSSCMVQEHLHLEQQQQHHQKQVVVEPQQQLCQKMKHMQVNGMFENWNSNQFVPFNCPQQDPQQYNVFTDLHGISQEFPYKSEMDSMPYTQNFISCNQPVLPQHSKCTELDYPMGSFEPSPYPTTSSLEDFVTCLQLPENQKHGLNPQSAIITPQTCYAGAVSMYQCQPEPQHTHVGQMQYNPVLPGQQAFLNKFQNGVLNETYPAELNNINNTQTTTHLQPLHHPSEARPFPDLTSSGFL

AhR-GFP = target: T2, AhR-GFP (Homo sapiens, UniProt P35869); assay: MCF7 AhR-GFP.IRES.mCherry reporter, flow cytometry quantification of AhR protein levels; assay type: cell-based; settings: 5 μM, 5 h
T2 construct: host or cells: MCF7, lentiviral transduction
Procedure: (§1) Figure 6 Bifunctional AhR probes and AhR reporter in MCF7 cells. (a) Synthetic access to the conjugatable AhR ligand 5m. (b) Structure, yield, and EC50 value of the model amide 12a and MD simulation of AhR with 12a (last snapshot). (c) PROTAC-like compound 12b and dual probes 12c–d. Reaction conditions: (a) 5m (1 equiv), amine (1 equiv), HATU, DIPEA, DMF, rt, 24 h, Ar atm; (b) 5m (2 equiv), diamine (1 equiv), HATU, DIPEA, DMF, rt, 24 h, Ar atm. (d) General setup of the reporter system for quantifying AhR protein levels. (e) The population of MCF7 reporter cells (MCF7 AhR-GFP.IRES.mCherry) gated by flow cytometry and used for quantification of AhR. […] Values represent the ratio of the geometric mean of GFP and mCherry values in the gated population. (g) Change in protein levels relative to vehicle treatment (DMSO) in MCF7 cells treated with 12b at 10 μM for 5 h quantified by TMT labeling and LC/MS analysis versus p-Value. TEXT PRINTED IN THE PICTURE: (b) 12a: EC50 = 0.40 μM […]
To test the effect of these compounds on AhR abundance, we established a cellular reporter in the breast cancer cell line MCF7. AhR in this case is fused to GFP bearing an independently translated mCherry on the same transcript to allow correction for general transcriptional interference of treatments (Figure 6d,e). […]

AhR = target: T3, AhR (Homo sapiens, UniProt P35869); assay: Global proteomics (TMT labeling, LC/MS) in MCF7 cells; assay type: cell-based; settings: 10 μM, 5 h
T3 construct: Degradation of endogenous AhR was further confirmed via Western blotting and global proteomics measurements in cells treated with 12b; host or cells: MCF7
T3 sequence (P35869 11-848): T1 sequence (P35869 11-848)
Procedure: as §1
Generation of reporter cell lines
The MCF7.AhR-GFP.IRES.mCherry and MCF7.AhRdPasB(d275-342)-GFP.IRES.mCherryreporter cell line was generated via lentivirus transduction. The coding sequence of the full length AhR (NM_001621.5), as well as the PasB deleted AhR (d275-342) were synthesized and cloned into a Lenti virus transfer plasmid (Artichoke, Addgene #73320), with hereby the resistance was swapped from puromycin to hygromycin. To produce the virus, 550k Lenti-X 293T cells (Takeda #632180) were seeded in a six-well plate with 3 mL of growth medium. The following day, a plasmid solution containing psPAX2 (500 ng), pVSV-G (5 ng), and AhR transfer plasmid (500 ng) was diluted in 21.5 μL of OPTIMEM, reaching a total volume of 32.5 μL. […]
For the flow cytometry experiments 150k cells were seeded in a 24 well-plate format in 0.5 mL growing medium and left to grow in the incubator for 16 h. […] They were subsequently measured on a BD LSR II and the data analyzed with FlowJo software (version 10.5.3, TreeStar). […]

T2 sequence (P08238 whole entry partner, one chain of several): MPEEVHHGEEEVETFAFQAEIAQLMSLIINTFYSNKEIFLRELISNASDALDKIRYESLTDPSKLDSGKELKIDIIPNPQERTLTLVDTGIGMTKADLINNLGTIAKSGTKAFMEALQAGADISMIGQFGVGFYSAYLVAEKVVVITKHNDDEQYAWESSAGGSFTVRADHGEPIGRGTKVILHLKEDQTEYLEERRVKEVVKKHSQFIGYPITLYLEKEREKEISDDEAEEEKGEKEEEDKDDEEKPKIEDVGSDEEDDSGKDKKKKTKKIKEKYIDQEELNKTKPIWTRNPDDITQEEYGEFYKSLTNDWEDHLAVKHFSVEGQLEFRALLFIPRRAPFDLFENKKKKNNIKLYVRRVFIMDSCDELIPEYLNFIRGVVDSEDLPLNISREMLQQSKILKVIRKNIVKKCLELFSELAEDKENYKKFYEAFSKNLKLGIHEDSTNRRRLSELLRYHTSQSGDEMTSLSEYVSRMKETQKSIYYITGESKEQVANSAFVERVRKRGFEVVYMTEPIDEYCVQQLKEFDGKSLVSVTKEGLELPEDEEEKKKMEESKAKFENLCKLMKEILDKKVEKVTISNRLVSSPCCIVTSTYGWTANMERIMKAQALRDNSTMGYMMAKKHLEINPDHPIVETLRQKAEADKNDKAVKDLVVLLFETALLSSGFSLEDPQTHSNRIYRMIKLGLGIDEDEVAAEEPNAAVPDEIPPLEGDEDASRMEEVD
T2 sequence (O00170 whole entry partner, one chain of several): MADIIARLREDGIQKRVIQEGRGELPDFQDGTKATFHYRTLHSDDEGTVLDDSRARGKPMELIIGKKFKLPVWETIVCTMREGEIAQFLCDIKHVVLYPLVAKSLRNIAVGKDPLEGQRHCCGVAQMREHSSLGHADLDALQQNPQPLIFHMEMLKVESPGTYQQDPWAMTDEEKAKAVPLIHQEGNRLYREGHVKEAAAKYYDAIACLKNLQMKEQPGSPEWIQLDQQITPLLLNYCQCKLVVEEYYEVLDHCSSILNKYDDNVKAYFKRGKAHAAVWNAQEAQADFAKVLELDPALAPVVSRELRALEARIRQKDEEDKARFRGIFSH

Compound | UVA photosensitization (HaCaT cells) | EC50 [1] [nM] | AhR degradation in reporter system (AhR-GFP) | degradation of common CRBN-thalidomide off-target factors (zinc finger proteins, GSPT1) (AhR) | induced transcriptional activity (CYP1A1 and CYP1B1 protein levels) (AhR) | selectivity of protein degradation (AhR)
6-formylindolo[3,2-b]carbazole [FICZ] | nanomolar sensitizer for UVA radiation | – | – | – | – | –
O=C1CCC(N2C(=O)c3cccc(OCCOCCOCCOCCNC(=O)c4ccc5c(-c6c7[nH]c8ccccc8c7cc7[nH]c8ccccc8c67)c[nH]c5c4)c3C2=O)C(=O)N1 (stereo not drawn) [12b] | – | 200 | pronounced AhR degradation | absence of degradation | upregulation of CYP1A1 and CYP1B1 | selectivity for AhR degradation
